# How the values were obtained:
# [1] = relatively large oral doses (>20 g); cited from earlier work
# SIRT3 = SIRT3 in endothelial cells; assay type: cell-based; settings: EOMA endothelial cells
# Description: To that end, the inventors used endothelial cells (EOMA cells) and liver cells (AML-12 cells) in vitro and quantified various markers in response to exposure of the cells to environmental challenge in the presence and absence of DDA at low concentrations. Unless indicated otherwise, the DDA concentration in the in vitro experiments was 5 mcg per microliter. More specifically, the inventors measured p-H2AX protein levels as a marker for DNA damage, PGC-1α protein levels as a marker for mitochondrial biogenesis, NAMPT enzyme levels as a marker for potential for NAD+ production, and total antioxidant capacity as a marker of cellular health. In addition, the inventors also measured global SIRT activity as a gauge of activity for all SIRT enzymes, and in particular SIRT1 enzyme levels as markers for autophagy and various beneficial processes associated with a caloric restricted diet, and SIRT3 levels as markers for mitochondrial function and longevity.
# In yet a further series of experiments, the inventors also sought to confirm whether or not DDDA would have a modulatory effect in endothelial cells using the same markers and experimental conditions as noted above.
# N=5-6 plates per treatment.
# Wistar rats = assay: Study 1 (prevention): liver histology (H&E, Oil Red O, Sirius Red); assay type: in vivo; settings: Study 1, 4 weeks, 1% (w/vol) in drinking water
# Description: Study design: All animal procedures were approved by the Catholic University of Rome Institutional Animal Care Committee. The design of the studies is summarized in FIG. 18, Panels A and B. • Study 1: Twenty adult Wistar rats, aged 8-10 weeks, were included in the study. The rats were housed in individual cages at 22° C. with 12-h light cycles and had ad libitum access to food and water. Rats were fed a high-fat high-cholesterol diet (44% Carbohydrate, 14% Protein, 42% fat+0.2% Cholesterol) (Mucedola, Milan, IT) for four weeks in the presence or absence of 1% Dodecanedioic acid, sodium salt (w/vol) dissolved in the water (FIG. 18, Panel A). Body weight and food/water intake were monitored weekly. • Study 2: Twenty adult Wistar rats, aged 8-10 weeks, were included in the study. The rats were housed in individual cages at 22° C. with 12-h light cycles and had ad libitum access to food and water. Rats were fed a high-fat high-cholesterol diet (44% Carbohydrate, 14% Protein, 42% fat+0.2% Cholesterol) (Mucedola, Milan, IT). After nine weeks of diet, rats were randomly assigned to one of the following groups: Four weeks of high-fat high-cholesterol diet or four weeks of high-fat high-cholesterol diet and 1% Dodecanedioic acid, sodium salt (w/v) dissolved in the water FIG. 18, Panel B). Body weight and food/water intake were monitored weekly.
# Histology: The day of the sacrifice fresh portions of liver were cut, embedded in cryo-embedding media (OCT) and snap frozen in liquid nitrogen. Biopsies were cut using a cryostat (5 μm) and slides stored a −20° C. until analyses.
# Hematoxylin and Eosin staining was performed to assess hepatic steatosis. Slides were fixed 10 minutes with 95% ethanol, stained with hematoxylin for 1 minute, washed with distilled water, stained with eosin for 30 seconds and cleared in two changes of pure ethanol and two changes of xylene.
# Oil Red O was performed to assess intracellular lipid accumulation. Slides were fixed overnight with 4% formalin, stained with Oil Red O solution for 1 hour. Counterstain was performed with Hematoxylin solution.
# Sirius Red was used to identify hepatic fibrosis. Slides were fixed 10 minutes with 4% formalin, stained in Direct red 80 for 1 hour, washed in acidified water and dehydrate in 3 changes of absolute ethanol. After brief clearing in xylene, the slides were mounted in a resinous medium. Images were taken with an optical microscope (Leica DM2000, Wetzlar, DE). […]
# Panels A and B. • Study 1: Twenty adult Wistar rats, aged 8-10 weeks, were included in the study. […] Body weight and food/water intake were monitored weekly. • Study 2: Twenty adult Wistar rats, aged 8-10 weeks, were included in the study. […] Body weight and food/water intake were monitored weekly. […]
smiles,measurement,setting,value
"O=C(O)CCCCCCCCCCC(=O)O [DDDA, dodecanedioic acid]",effect on blood glucose in healthy individuals,[1],no corresponding effects
same,effect on blood glucose in individuals diagnosed with NIDDM,[1],hypoglycemic effect
same,SIRT3,SIRT3; 24 hours,significant decline
same,SIRT3,SIRT3; acute (6-hour data),strong and acute increase
same,"diet-induced NASH (histology, prevention)",Wistar rats,prevents diet-induced NASH
same,fibrosis (Picro Sirius Red),Wistar rats,reduced
same,hepatic steatosis (Hematoxylin and Eosin),Wistar rats,reduced
same,neutral lipids deposition (Oil Red O),Wistar rats,reduced

# Reference: patent US20260053767A1, “Hepatoprotective Compositions And Methods” (Jemyll, Ltd., priority 2022, published 2026)
